From patent publication US20110262996A1, “METHODS AND MATERIALS FOR DEGRADING PYRETHROID” (DANISCO A/S, priority 2008, published 2011)

Biological target: T1, organophosphate hydrolase (OPH) (Brevundimonas diminuta, UniProt P0A434)
T1 construct: purchased Genencor DEFENZ 130G, lot 102-6181-001
Assay: Time course of permethrin degradation by OPH, permethrin quantified by GCMS
Assay type: biochemical
Conditions: for Amount of Permethrin measured: 5 μL of 0.31 mg/mL OPH added to 995 μL of 2.5 mg/mL permethrin, pH 8.5, 22° C., ppm at the detector
Method: OPH was assayed for the ability to degrade permethrin. Its efficacy has been measured by performing time course experiments wherein a sample of OPH is added to a sample of permethrin. Degraded permethrin is then separated from the reaction mixture and detected on a GCMS.
Experimental Methods and Equipment. A Shimadzu GC2010 Gas Chromatograph with AOC 20i Auto Injector and a Shimadzu GCMS QP2010S Quadrapole Mass Spectrometer were used to analyze the experimental samples. A Supelco Equity-5 column was used (length: 30.0 m, thickness: 0.25 μm, diameter: 0.25 mm) for the assays. However, analogous columns may be substituted.
The equipment was run with the following parameters: • column oven temperature: 120° C. • injector temperature: 250° C. • injection: splitless • pre-run rinses: 3 • post-run rinses: 3 • sample rinses: 2 • linear velocity: 30 cm/sec • column flow: 0.64 mL/min • split ratio: 10 • detector voltage: relative to tuning • ion source temperature: 250° C. • interface temperature: 270° C. • solvent cut time: 3 min • run time: 35 min • temperature ramp: 5° C./min • scan speed: 833
Experimental assays were run using recombinant OPH (DEFENZ™ 130G, lot 102-6181-001; Genencor). Reagents included ammonium carbonate (Sigma 207861, lot 12919JC), cobalt chloride (JT Baker 1670-04, lot Y41640), hydrochloric acid (JT Baker 5620-02, lot A23506), propanol (Sigma 154970, lot 04242AD), and permethrin (Sigma-Pestanal 45614, lot 7079×).
Preparation of Enzyme Samples. OPH enzyme granules (2% protein) were dissolved in 33 mM ammonium carbonate buffer, pH 8.5, at 22° C. The reaction mixture was agitated for 30 minutes, first vortexed, then slowly agitated on a temperature-controlled platform shaker. A 1.5 mL sample of the enzyme solution was taken and centrifuged for 1 minute at 13,000 rpm. An aliquot of the resulting supernatant is used in the pesticide degradation reaction.
Preparation of Permethrin Samples. A stock permethrin sample at a concentration of 100 mg/mL was made by dissolving an appropriate amount of permethrin standard into propanol. The stock sample was stored under refrigeration. For generating standard curves on the GCMS, permethrin standards were made by diluting an aliquot of the stock permethrin sample into propanol to achieve a concentration of 1 mg/mL and 10 mg/mL. Permethrin to be used in the enzyme reaction was prepared by diluting an aliquot of the stock solution into 33 mM ammonium carbonate buffer at the desired pH for a particular reaction, and at room temperature.
Enzyme Reactions. In a 1.5 mL tube, 250 μL of a 10 mg/mL permethrin solution in propanol was added to 0.75 mL of 33 mM ammonium carbonate buffer, pH 8.5. A 995 μL aliquot of the permethrin solution was placed in a 1.5 mL gas chromatography (GC) sample vial, to which was added a 5 μL aliquot of a 0.31 mg/mL OPH enzyme solution. To inactivate the reaction at any specific time point, a 10 μL aliquot of the reaction solution was removed and added to 990 μL of propanol in a GC sample vial. These samples were then loaded on the GCMS autosampler.
Results and Discussion. This study was conducted to determine whether OPH degrades permethrin. To quantitatively measure amounts of permethrin, the Shimadzu GC with Quadrapole MS detector was used, as in previous pesticide experiments. A standard curve was generated using 1 mg/mL and 10 mg/mL stock solutions in propanol. Regression of the standard curve yielded R2 values of 0.9997 above 50 ppm and of 0.998 below 50 ppm.
Preliminary experiments were conducted to ascertain optimum concentrations for the enzyme reactions. […] Samples were taken at time points of 0, 1, 5, 15, and 30 minutes by removing 10 μL of the reaction mixture and adding it to 990 μL of propanol. […]

For CC1(C)C(C=C(Cl)Cl)C1C(=O)OCc1cccc(Oc2ccccc2)c1 (stereo not shown) [permethrin], the “degraded amount of permethrin at the detector” value (after 30 minutes) was 12 ppm, the “Amount of Permethrin measured” value (time 0 min) was 31.47 ppm and the “Amount of Permethrin measured” value (time 1 min) was 25.8 ppm. The “Amount of Permethrin measured” value (time 5 min) was 25.88 ppm, the “Amount of Permethrin measured” value (time 15 min) was 24.64 ppm and the “Amount of Permethrin measured” value (time 30 min) was 19.27 ppm. The “initial, rapid degradation of permethrin at the detector” value (within 1 minute of the start of the reaction) was “approximately 6 ppm”.
